Results reported in ChEMBL document CHEMBL5291721, “A preclinical secondary pharmacology resource illuminates target-adverse drug reaction associations of marketed drugs” (Nat Commun, 2023).

Columns and labels:
[1] = molecular target: D(1A) dopamine receptor (Homo sapiens, UniProt P21728); format: functional, cell-based
[2] = molecular target: T1, Thromboxane A2 receptor (Homo sapiens, UniProt P21731)
T1 sequence (P21731 whole entry): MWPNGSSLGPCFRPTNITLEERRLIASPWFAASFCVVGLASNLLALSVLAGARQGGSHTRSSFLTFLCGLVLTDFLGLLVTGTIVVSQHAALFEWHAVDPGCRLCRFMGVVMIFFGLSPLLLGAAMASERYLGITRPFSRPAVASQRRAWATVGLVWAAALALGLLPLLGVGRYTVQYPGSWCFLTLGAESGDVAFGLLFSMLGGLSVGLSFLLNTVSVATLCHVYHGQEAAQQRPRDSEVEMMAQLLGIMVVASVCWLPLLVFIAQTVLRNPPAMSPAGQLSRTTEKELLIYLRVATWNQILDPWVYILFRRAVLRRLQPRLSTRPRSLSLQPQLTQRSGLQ

[3] = molecular target: Vasopressin V2 receptor (Homo sapiens, UniProt P30518)
[4] = molecular target: T2, Amine oxidase [flavin-containing] A (Homo sapiens, UniProt P21397); format: functional
T2 sequence (P21397 whole entry): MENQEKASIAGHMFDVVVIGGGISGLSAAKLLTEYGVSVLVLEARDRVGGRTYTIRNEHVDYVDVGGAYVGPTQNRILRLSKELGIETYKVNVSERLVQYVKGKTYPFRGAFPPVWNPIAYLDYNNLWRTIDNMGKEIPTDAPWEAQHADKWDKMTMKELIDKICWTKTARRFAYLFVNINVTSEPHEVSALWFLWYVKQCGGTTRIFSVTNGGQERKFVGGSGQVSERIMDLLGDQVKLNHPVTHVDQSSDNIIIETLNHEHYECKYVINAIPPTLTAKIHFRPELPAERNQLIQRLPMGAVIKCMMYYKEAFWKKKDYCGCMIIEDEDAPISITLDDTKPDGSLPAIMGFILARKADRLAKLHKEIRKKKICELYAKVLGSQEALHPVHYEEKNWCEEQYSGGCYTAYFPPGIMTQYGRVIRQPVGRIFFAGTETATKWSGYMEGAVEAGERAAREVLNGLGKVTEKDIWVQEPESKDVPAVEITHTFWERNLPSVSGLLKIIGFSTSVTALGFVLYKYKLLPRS

[5] = molecular target: Motilin receptor (Homo sapiens, UniProt O43193)
[6] = molecular target: 3',5'-cyclic-AMP phosphodiesterase 4D (Homo sapiens, UniProt Q08499); format: functional
[7] = molecular target: Sodium-dependent dopamine transporter (Homo sapiens, UniProt Q01959)
[8] = molecular target: Cannabinoid receptor 1 (Homo sapiens, UniProt P21554); format: functional, cell-based
[9] = molecular target: Mu-type opioid receptor (Homo sapiens, UniProt P35372)
[10] = molecular target: T1, Thromboxane A2 receptor; format: functional, cell-based
[11] = molecular target: Voltage-gated inwardly rectifying potassium channel KCNH2 (Homo sapiens, UniProt Q12809); format: functional; conditions: read-out: AC50
[12] = molecular target: T3, 5-hydroxytryptamine receptor 3A (Homo sapiens, UniProt P46098); format: functional
T3 sequence (P46098 whole entry): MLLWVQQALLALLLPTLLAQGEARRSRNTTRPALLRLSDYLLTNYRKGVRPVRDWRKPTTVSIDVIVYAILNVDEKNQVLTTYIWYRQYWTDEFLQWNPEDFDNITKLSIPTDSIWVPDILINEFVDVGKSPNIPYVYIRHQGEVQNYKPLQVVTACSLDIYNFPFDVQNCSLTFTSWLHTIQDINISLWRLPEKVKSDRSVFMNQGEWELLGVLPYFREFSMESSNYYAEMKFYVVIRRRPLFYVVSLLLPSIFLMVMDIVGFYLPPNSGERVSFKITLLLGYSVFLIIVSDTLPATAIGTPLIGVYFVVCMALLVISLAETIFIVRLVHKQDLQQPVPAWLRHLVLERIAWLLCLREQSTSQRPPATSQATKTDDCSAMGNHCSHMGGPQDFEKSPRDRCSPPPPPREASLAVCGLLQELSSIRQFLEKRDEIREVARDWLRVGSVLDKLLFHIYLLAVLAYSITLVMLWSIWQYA

[13] = molecular target: Neuronal acetylcholine receptor subunit alpha-4 (Homo sapiens, UniProt P43681)
[14] = molecular target: T4, Equilibrative nucleoside transporter 1 (Homo sapiens, UniProt Q99808)
T4 sequence (Q99808 whole entry): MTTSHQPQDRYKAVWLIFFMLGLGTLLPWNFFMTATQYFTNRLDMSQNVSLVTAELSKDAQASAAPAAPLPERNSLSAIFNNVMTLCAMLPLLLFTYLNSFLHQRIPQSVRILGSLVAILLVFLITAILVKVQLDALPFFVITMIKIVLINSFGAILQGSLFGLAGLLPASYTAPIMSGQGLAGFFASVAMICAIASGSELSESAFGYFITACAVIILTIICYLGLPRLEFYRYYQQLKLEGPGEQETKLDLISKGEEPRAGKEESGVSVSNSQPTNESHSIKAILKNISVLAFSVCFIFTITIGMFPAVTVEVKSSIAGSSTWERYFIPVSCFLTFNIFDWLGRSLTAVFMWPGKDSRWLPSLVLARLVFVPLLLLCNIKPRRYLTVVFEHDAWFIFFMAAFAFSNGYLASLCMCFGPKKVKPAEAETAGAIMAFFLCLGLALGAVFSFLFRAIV

[15] = molecular target: Melanocortin receptor 3 (Homo sapiens, UniProt P41968)
[16] = molecular target: T5, Adenosine receptor A3 (Homo sapiens, UniProt P0DMS8)
T5 sequence (P0DMS8 whole entry): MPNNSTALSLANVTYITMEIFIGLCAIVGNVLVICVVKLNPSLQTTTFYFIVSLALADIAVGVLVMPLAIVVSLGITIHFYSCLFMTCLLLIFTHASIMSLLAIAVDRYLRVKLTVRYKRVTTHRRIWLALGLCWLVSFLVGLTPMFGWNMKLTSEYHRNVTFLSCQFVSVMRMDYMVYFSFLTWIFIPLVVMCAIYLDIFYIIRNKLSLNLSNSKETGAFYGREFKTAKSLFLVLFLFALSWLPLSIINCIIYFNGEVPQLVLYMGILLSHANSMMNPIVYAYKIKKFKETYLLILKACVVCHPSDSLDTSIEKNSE

[17] = molecular target: 5-hydroxytryptamine receptor 2A (Homo sapiens, UniProt P28223); format: functional, cell-based
[18] = molecular target: Sodium-dependent serotonin transporter (Homo sapiens, UniProt P31645)
Note: assay procedure not described here.

Sequence of Neuronal acetylcholine receptor subunit alpha-4 (P43681 whole entry): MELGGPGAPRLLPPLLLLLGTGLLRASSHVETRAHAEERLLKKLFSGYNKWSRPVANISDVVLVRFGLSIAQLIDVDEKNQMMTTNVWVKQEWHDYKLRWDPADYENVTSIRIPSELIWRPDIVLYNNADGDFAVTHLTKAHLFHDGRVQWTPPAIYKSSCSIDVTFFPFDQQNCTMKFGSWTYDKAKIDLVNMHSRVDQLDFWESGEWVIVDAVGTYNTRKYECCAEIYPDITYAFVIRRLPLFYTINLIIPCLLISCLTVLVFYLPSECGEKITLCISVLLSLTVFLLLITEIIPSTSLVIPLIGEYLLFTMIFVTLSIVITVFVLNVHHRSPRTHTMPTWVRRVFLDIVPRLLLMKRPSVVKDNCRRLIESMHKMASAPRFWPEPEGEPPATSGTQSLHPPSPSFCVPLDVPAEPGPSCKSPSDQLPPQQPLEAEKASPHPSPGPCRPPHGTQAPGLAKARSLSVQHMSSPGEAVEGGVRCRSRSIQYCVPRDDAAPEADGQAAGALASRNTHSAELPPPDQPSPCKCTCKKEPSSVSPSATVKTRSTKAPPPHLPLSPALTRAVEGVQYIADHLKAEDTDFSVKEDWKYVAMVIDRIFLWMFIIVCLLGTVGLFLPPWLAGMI
Sequence of Motilin receptor (O43193 whole entry): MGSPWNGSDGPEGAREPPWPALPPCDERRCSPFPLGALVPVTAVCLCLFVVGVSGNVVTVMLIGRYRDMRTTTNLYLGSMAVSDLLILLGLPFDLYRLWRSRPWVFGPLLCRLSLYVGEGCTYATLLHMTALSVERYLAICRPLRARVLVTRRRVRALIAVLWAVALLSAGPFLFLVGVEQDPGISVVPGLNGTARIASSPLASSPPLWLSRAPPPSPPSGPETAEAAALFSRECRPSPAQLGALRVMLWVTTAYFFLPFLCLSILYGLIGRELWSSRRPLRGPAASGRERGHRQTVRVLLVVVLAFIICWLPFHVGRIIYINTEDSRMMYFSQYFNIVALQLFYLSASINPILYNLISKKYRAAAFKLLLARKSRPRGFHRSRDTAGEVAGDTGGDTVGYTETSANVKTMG
Sequence of 3',5'-cyclic-AMP phosphodiesterase 4D (Q08499 whole entry): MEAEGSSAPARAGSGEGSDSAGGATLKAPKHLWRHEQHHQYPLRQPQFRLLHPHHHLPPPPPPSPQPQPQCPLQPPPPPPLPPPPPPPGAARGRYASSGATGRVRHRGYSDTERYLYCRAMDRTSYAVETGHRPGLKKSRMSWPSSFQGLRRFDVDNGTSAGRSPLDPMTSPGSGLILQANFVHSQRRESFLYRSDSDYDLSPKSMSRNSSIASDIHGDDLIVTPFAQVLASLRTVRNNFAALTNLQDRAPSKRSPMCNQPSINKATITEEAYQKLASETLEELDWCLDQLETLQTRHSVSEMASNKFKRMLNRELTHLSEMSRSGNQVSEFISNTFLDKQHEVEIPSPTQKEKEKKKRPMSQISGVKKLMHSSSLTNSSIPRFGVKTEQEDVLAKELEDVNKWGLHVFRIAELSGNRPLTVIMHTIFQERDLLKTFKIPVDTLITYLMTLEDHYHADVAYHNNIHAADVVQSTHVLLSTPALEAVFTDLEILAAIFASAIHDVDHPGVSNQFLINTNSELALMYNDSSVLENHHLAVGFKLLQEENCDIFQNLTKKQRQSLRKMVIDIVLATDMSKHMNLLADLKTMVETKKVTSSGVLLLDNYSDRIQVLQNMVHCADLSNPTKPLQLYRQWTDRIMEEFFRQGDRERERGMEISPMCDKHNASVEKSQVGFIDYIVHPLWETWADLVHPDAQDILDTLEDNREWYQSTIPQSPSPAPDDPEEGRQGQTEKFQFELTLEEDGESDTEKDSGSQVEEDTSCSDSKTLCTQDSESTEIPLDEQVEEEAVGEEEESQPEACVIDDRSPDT
Sequence of Voltage-gated inwardly rectifying potassium channel KCNH2 (Q12809 whole entry): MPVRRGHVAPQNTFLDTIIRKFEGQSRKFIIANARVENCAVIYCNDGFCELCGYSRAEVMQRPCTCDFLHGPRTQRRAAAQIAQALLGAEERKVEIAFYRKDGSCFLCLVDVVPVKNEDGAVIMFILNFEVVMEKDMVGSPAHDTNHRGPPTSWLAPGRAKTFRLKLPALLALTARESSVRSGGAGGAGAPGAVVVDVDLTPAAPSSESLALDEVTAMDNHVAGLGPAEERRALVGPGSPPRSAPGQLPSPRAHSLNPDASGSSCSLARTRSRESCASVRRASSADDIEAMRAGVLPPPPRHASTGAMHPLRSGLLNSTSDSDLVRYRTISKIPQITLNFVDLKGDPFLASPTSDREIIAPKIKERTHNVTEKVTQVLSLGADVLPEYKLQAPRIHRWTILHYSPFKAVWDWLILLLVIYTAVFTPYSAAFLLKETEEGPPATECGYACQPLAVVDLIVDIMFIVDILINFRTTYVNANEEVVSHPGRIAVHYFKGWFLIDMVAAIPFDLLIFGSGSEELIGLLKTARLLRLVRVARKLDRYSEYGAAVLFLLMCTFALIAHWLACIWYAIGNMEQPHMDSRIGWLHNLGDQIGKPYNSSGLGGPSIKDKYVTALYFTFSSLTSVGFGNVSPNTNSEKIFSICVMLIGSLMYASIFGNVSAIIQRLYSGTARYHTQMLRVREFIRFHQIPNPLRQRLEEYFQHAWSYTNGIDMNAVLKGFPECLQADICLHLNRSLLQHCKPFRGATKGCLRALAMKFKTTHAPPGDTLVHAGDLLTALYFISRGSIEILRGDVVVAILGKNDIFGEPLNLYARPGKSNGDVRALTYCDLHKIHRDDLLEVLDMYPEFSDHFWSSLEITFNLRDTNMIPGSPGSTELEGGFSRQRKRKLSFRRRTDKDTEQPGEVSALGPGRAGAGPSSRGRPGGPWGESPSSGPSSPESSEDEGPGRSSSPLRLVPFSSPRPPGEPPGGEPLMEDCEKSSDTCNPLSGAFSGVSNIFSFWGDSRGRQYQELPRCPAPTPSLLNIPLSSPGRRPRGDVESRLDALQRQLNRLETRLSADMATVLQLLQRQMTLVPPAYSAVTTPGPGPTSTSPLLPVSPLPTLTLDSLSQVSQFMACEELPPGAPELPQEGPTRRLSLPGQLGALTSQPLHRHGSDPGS
Sequence of Sodium-dependent serotonin transporter (P31645 whole entry): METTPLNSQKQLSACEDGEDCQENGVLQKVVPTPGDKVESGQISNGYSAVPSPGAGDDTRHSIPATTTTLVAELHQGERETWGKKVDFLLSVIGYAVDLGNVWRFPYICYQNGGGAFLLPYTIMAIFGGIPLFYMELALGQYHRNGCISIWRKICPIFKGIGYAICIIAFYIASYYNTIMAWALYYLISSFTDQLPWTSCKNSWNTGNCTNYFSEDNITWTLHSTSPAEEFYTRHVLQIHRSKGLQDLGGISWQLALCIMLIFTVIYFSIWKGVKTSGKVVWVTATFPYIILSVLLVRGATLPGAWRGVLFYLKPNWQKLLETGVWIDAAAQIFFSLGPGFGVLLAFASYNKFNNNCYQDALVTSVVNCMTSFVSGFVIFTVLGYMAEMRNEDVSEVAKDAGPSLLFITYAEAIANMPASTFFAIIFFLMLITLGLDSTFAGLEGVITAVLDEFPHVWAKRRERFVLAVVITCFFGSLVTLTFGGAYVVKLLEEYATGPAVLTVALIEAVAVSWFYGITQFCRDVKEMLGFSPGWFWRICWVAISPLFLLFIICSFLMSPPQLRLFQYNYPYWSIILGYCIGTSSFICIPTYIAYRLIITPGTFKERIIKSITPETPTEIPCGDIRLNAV
Sequence of Melanocortin receptor 3 (P41968 whole entry): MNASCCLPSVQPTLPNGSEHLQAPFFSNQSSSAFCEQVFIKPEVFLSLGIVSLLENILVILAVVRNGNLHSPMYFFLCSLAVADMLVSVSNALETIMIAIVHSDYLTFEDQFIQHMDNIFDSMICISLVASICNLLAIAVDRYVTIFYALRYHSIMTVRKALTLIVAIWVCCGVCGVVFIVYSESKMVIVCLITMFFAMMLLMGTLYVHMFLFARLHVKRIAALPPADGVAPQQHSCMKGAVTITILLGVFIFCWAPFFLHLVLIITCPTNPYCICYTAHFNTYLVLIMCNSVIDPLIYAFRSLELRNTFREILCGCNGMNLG
Sequence of Mu-type opioid receptor (P35372 whole entry): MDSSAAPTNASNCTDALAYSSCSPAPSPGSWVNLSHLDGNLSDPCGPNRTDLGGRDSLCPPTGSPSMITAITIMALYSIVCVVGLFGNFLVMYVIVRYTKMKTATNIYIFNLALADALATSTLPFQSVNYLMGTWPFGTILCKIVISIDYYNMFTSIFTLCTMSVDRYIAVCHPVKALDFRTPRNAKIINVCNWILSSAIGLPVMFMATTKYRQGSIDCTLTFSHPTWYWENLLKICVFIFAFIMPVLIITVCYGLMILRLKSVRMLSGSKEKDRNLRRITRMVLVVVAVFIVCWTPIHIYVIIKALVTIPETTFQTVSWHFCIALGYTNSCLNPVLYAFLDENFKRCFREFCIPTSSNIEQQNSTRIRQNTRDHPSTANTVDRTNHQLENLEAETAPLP
Sequence of Vasopressin V2 receptor (P30518 whole entry): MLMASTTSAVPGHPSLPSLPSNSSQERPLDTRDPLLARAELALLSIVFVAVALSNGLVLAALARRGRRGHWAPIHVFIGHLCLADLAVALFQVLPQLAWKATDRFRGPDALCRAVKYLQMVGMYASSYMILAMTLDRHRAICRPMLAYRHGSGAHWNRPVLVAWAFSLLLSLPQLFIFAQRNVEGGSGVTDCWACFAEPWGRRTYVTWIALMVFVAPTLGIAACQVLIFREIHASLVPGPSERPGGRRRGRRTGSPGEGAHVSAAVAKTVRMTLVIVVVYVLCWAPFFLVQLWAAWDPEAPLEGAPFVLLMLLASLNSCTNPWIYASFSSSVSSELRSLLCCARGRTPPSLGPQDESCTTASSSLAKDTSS

Row | Compound | AC50 [1] [µM] | AC50 [2] [µM] | AC50 [3] [µM] | AC50 [4] [µM] | AC50 [5] [µM] | AC50 [6] [µM] | AC50 [7] [µM] | AC50 [8] [µM] | AC50 [9] [µM] | AC50 [10] [µM] | AC50 [11] [µM] | AC50 [12] [µM] | AC50 [13] [µM] | AC50 [14] [µM] | AC50 [15] [µM] | AC50 [16] [µM] | AC50 [17] [µM] | AC50 [18] [µM]
1 | CS(=O)(=O)c1ccc(C2=C(c3ccccc3)C(=O)OC2)cc1 [ROFECOXIB] | > 10 | > 30 | > 30 | > 30 | > 10 | > 30 | > 10 | > 30 | > 10 | > 30 | > 30 | > 10 | > 10 | > 30 | > 30 | > 30 | – | –
2 | CN1C(=O)CCS(=O)(=O)C1c1ccc(Cl)cc1 (stereo not drawn) [CHLORMEZANONE] | > 10 | > 10 | > 10 | – | > 10 | > 30 | > 10 | – | > 30 | – | > 30 | > 30 | > 10 | > 10 | > 10 | > 10 | > 10 | > 10
3 | Cc1cn([C@H]2C[C@H](N=[N+]=[N-])[C@@H](CO)O2)c(=O)[nH]c1=O [ZIDOVUDINE] | > 10 | > 30 | > 30 | > 30 | > 10 | > 30 | > 10 | > 30 | > 30 | > 30 | > 30 | > 30 | > 10 | > 30 | > 30 | > 30 | – | –
4 | O=C1Nc2ccc(Cl)cc2[C@@](C#CC2CC2)(C(F)(F)F)O1 [EFAVIRENZ] | > 30 | > 30 | > 30 | – | > 30 | 15 | 18 | > 30 | > 30 | – | > 30 | > 30 | > 30 | > 30 | > 30 | 6 | – | > 30
5 | CC(C)C[C@H]1C(=O)N2CCC[C@H]2[C@]2(O)O[C@](NC(=O)[C@@H]3C=C4c5cccc6[nH]c(Br)c(c56)C[C@H]4N(C)C3)(C(C)C)C(=O)N12 [BROMOCRIPTINE] | 1.52 | > 30 | > 30 | > 30 | > 30 | 5.5 | > 30 | > 30 | 14 | 18.8 | > 30 | > 30 | > 30 | 13 | > 30 | 6.81 | – | –
6 | Cc1cn([C@H]2C=C[C@@H](CO)O2)c(=O)[nH]c1=O [STAVUDINE] | > 10 | > 30 | > 30 | > 30 | > 10 | > 30 | > 10 | > 30 | > 30 | > 30 | > 30 | > 10 | > 10 | > 30 | > 30 | > 30 | – | –
7 | NCC(CC(=O)O)c1ccc(Cl)cc1 (stereo not drawn) [BACLOFEN] | > 30 | > 30 | > 30 | > 30 | > 30 | > 30 | > 30 | > 30 | > 30 | > 30 | > 30 | > 30 | > 30 | > 30 | > 30 | 4.2 | – | –
8 | CN(C)CCC=C1c2ccccc2C(C)(C)c2ccccc21 | > 30 | – | – | – | 14 | > 30 | > 30 | > 30 | 24 | – | 4.13 | 4.4 | > 1 | > 30 | 21 | > 30 | – | 0.24
9 | CC(=O)Nc1ccc(O)cc1 [ACETAMINOPHEN] | – | – | – | > 10 | > 30 | > 30 | > 30 | > 30 | > 30 | > 30 | > 30 | > 30 | > 30 | > 30 | > 30 | > 30 | – | –
10 | CC[C@H]1OC(=O)[C@H](C)[C@@H](O[C@H]2C[C@@](C)(OC)[C@@H](O)[C@H](C)O2)[C@H](C)[C@@H](O[C@@H]2O[C@H](C)C[C@H](N(C)C)[C@H]2O)[C@](C)(O)C[C@@H](C)CN(C)[C@H](C)[C@@H](O)[C@]1(C)O [AZITHROMYCIN] | > 10 | > 30 | > 30 | > 30 | > 10 | > 30 | > 10 | > 30 | > 10 | > 30 | > 30 | > 10 | > 10 | > 30 | > 30 | > 30 | – | –
11 | CO[C@H]1C[C@@H]2CC[C@@H](C)[C@@](O)(O2)C(=O)C(=O)N2CCCC[C@H]2C(=O)O[C@H]([C@H](C)C[C@@H]2CC[C@@H](O)[C@H](OC)C2)CC(=O)[C@H](C)/C=C(\C)[C@@H](O)[C@@H](OC)C(=O)[C@H](C)C[C@H](C)/C=C/C=C/C=C/1C [SIROLIMUS] | > 10 | > 30 | > 30 | > 30 | > 10 | > 30 | > 30 | > 30 | > 10 | > 30 | > 30 | > 30 | > 10 | 6.8 | > 30 | 21.3 | – | –
